Test results reported in patent US20230374143A1, “A SORTILIN ANTAGONIST FOR USE IN THE PREVENTION OR TREATMENT OF HEARING LOSS” (Insusense ApS, priority 2020, published 2023).

target: T1, hSortilin (Homo sapiens, UniProt Q99523); test: Neurotensin SPA assay with [125I]-Neurotensin; assay type: binding; details: [125I]-Neurotensin; read-out: Observed IC50
T1 sequence (Q99523 78-831): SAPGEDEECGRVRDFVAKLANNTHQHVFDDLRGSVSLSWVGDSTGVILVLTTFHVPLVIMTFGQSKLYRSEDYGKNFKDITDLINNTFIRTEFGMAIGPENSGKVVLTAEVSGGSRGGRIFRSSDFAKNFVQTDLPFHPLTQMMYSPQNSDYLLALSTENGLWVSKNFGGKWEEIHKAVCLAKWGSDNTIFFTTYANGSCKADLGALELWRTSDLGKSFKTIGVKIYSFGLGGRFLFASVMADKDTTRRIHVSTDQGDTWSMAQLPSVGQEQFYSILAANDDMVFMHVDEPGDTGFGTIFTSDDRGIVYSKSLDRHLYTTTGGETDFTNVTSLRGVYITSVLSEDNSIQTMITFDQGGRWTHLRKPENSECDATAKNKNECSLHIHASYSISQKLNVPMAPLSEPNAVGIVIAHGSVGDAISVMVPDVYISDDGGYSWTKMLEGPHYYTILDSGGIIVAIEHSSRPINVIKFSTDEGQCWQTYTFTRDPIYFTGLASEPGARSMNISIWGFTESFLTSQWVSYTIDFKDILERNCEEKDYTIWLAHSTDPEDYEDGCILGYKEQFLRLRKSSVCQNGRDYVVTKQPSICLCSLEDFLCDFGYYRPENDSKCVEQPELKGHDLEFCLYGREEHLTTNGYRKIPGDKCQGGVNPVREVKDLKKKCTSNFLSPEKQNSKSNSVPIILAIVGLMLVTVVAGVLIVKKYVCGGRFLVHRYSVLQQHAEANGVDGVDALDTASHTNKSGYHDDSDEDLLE
Excerpt: All values reported are average of at least 4 determinations.^8

| SMILES | IC50 |
| --- | --- |
| CC(C)(C)CC[C@H](NC(=O)c1ccc(Oc2ccccc2)nc1)C(=O)O (racemic) [*Example 44] | 0.12 µM |

same assay, conditions: observed versus expected IC50

| SMILES | Fold difference between calculated and expected |
| --- | --- |
| CC(C)(C)CC[C@H](NC(=O)c1ccc(Oc2ccccc2)nc1)C(=O)O (racemic) [*Example 44] | 6 |

target: T2, SORT (Homo sapiens, UniProt Q99523); test: progranulin (PGRN) peptide/SORT homogenous time-resolved fluorescence (HTRF) assay; assay type: binding; details: SORT 1 nM, biotinylated 18-mer PGRN peptide 4 nM, TR-FRET
T2 sequence (Q99523 78-831): T1 sequence (Q99523 78-831)
Experimental: To determine the IC50s of compounds bound to SORT and thus preventing its interaction with the biotinylated 18-mer PGRN peptide a time-resolved fluorescence resonance energy transfer (TR-FRET) format was used. All test compounds were dissolved in DMSO; the final concentration of DMSO in the reaction buffer was 1%. Compounds were prepared in a ten-point, three-fold serial dilution scheme using an acoustic dispenser. A solution of SORT protein in assay buffer (10 mM HEPES, pH 7.3, 150 mM NaCl, 0.005% Brij-35 and 0.01% BSA, final concentration of SORT 1 nM) was added to each well and pre-incubated with compounds or DMSO vehicle at ambient temperature for 10 min with gentle shaking. Next, biotinylated 18-mer PGRN peptide was added to each well (final concentration 4 nM) and the binding reactions were incubated at ambient temperature for 30 min with gentle shaking. Solutions of SA/Dylight in assay buffer were added to each well, immediately followed by addition of Eu/anti-His in assay buffer. […] Data were analyzed using ABase and a 4-parameter logistic fit based on the Levenberg-Marquardt algorithm.^9

| SMILES | IC50 |
| --- | --- |
| CC(C)(C)CC[C@H](NC(=O)c1cc(Cl)cc(Cl)c1)C(=O)O (single isomer, unassigned) [Example 42] | 0.17 µM |
| CC(C)(C)CC[C@H](NC(=O)c1cc(Cl)c[nH]1)C(=O)O (single isomer, unassigned) [Example 43] | 0.09 µM |
| CC(C)(C)CC[C@H](NC(=O)c1ccc(Oc2ccccc2)nc1)C(=O)O (single isomer, unassigned) [Example 44] | 0.02 µM |
| CC(C)(C)c1cc(C(=O)O)n(Cc2ccccc2)n1 [Example 31, 1-benzyl-3-tert-butyl-1H-pyrazole-5-carboxylic acid] | 2 µM |
| CC(C)(C)c1cc(C(=O)O)n(Cc2cc(Cl)cc(Cl)c2)n1 [Example 32, 3-tert-butyl-1-[(3,5-dichlorophenyl)methyl]-1H-pyrazole-5-carboxylic acid] | 2.1 µM |
| CC(C)(C)c1cc(C(=O)O)n(Cc2ccc(-n3cccn3)nc2)n1 [Example 33, 3-tert-butyl-1-{[6-(1H-pyrazol-1-yl)pyridin-3-yl]methyl}-1H-pyrazole-5-carboxylic acid] | 3 µM |
| CC(C)(C)c1cc(C(=O)O)n(Cc2ccc(Oc3ccccc3)nc2)n1 [Example 34, 3-tert-butyl-1-[(6-phenoxypyridin-3-yl)methyl]-1H-pyrazole-5-carboxylic acid] | 2.1 µM |
| Cn1nc(C(C)(C)C)cc1C(=O)O [Example 35, 3-tert-butyl-1-methyl-1H-pyrazole-5-carboxylic acid] | 8.3 µM |
| CC(C)(C)c1cc(C(=O)O)n(-c2ccccc2)n1 [Example 36, 3-tert-butyl-1-phenyl-1H-pyrazole-5-carboxylic acid] | 7.6 µM |
| CC(C)(C)c1cc(C(=O)O)n(CCc2ccccc2)n1 [Example 37, 3-tert-butyl-1-(2-phenylethyl)-1H-pyrazole-5-carboxylic acid] | 5.3 µM |
| CC(C)(C)c1cc(C(=O)O)n(Cc2nnc(-c3ccccc3)o2)n1 [Example 38, 3-tert-butyl-1-[(5-phenyl-1,3,4-oxadiazol-2-yl)methyl]-1H-pyrazole-5-carboxylic acid] | 0.49 µM |
| CC(C)(C)Cc1cc(C(=O)O)n(Cc2ccccc2)n1 [Example 39, 1-benzyl-3-(2,2-dimethylpropyl)-1H-pyrazole-5-carboxylic acid] | 6.6 µM |
| CC(C)c1cc(C(=O)O)n(CCc2ccccc2)n1 [Example 40, 1-(2-phenylethyl)-3-(propan-2-yl)-1H-pyrazole-5-carboxylic acid] | > 67 µM |
| CC(C)(C)CCc1cc(C(=O)O)n(Cc2ccccc2)n1 [Example 41, 1-benzyl-3-(3,3-dimethylbutyl)-1H-pyrazole-5-carboxylic acid] | > 67 µM |
| CC(C)C[C@H](NC(=O)c1ccc(Cl)c(Cl)c1)C(=O)O [Example 45, (2S)-2-[(3,4-dichlorophenyl)formamido]-4-methylpentanoic acid] | 4.3 µM |
| CC(C)C[C@H](NC(=O)c1cc(Cl)cc(Cl)c1)C(=O)O [Example 46, (2S)-2-[(3,5-dichlorophenyl)formamido]-4-methylpentanoic acid] | 2.7 µM |
| CC(C)C[C@H](NC(=O)c1cccc(Cl)c1)C(=O)O [Example 47, (2S)-2-[(3-chlorophenyl)formamido]-4-methylpentanoic acid] | 4.5 µM |

| SMILES | IC50 |
| --- | --- |
| COc1cccc(C(=O)N[C@@H](CC(C)C)C(=O)O)c1 [Example 48, (2S)-2-[(3-methoxyphenyl)formamido]-4-methylpentanoic acid] | 6.8 µM |
| CC(C)C[C@H](NC(=O)C(C)(C)Cc1ccc(Cl)cc1)C(=O)O [Example 49, (2S)-2-{2-[(4-chlorophenyl)methyl]-2-methylpropanamido}-4-methylpentanoic acid] | 6.8 µM |
| CC(C)C[C@H](NC(=O)c1cnn(C)c1)C(=O)O [Example 50, (2S)-4-methyl-2-[(1-methyl-1H-pyrazol-4-yl)formamido]pentanoic acid] | 5.3 µM |
| CC(C)C[C@H](NC(=O)c1cnc2ccccc2n1)C(=O)O [Example 51, (2S)-4-methyl-2-[(quinoxalin-2-yl)formamido]pentanoic acid] | 6.3 µM |
| CC(C)C[C@H](NC(=O)C1CCCC1)C(=O)O [Example 52, (2S)-2-(cyclopentylformamido)-4-methylpentanoic acid] | 25.3 µM |
| CC(C)C[C@H](NC(=O)C1CN(Cc2cc(Cl)cc(Cl)c2)CCO1)C(=O)O (stereo partly drawn) [Example 53, (2S)-2-({4-[(3,5-dichlorophenyl)methyl]morpholin-2-yl}formamido)-4-methylpentanoic acid] | 14.4 µM |
| C=C(C)C[C@H](NC(=O)c1cc(Cl)cc(Cl)c1)C(=O)O [Example 54, (2S)-2-[(3,5-dichlorophenyl)formamido]-4-methylpent-4-enoic acid] | 17.1 µM |
| O=C(N[C@@H](CC1CC1)C(=O)O)c1cc(Cl)cc(Cl)c1 [Example 55, (2S)-3-cyclopropyl-2-[(3,5-dichlorophenyl)formamido]propanoic acid] | 10.7 µM |
| O=C(N[C@@H](CC1CCCCC1)C(=O)O)c1cc(Cl)cc(Cl)c1 [Example 56, (2S)-3-cyclohexyl-2-[(3,5-dichlorophenyl)formamido]propanoic acid] | 2.3 µM |
| CC(C)(C)C[C@H](NC(=O)c1cc(Cl)cc(Cl)c1)C(=O)O [Example 57, (2S)-2-[(3,5-dichlorophenyl)formamido]-4,4-dimethylpentanoic acid] | 0.35 µM |
| O=C(N[C@@H](CC12CC(C1)C2)C(=O)O)c1cc(Cl)cc(Cl)c1 [Example 58, (2S)-3-{bicyclo[1.1.1]pentan-1-yl}-2-[(3,5-dichlorophenyl)formamido]propanoic acid] | 18 µM |
| O=C(N[C@@H](Cc1ccccc1)C(=O)O)c1cc(Cl)cc(Cl)c1 [Example 59, (2S)-2-[(3,5-dichlorophenyl)formamido]-3-phenylpropanoic acid] | > 67 µM |
| CC(C)(C)OC[C@H](NC(=O)c1cc(Cl)cc(Cl)c1)C(=O)O [Example 60, (2S)-3-(tert-butoxy)-2-[(3,5-dichlorophenyl)formamido]propanoic acid] | 1.5 µM |
| CC(OC(C)(C)C)[C@H](NC(=O)c1cc(Cl)cc(Cl)c1)C(=O)O (stereo partly drawn) [Example 61, (2S)-3-(tert-butoxy)-2-[(3,5-dichlorophenyl)formamido]butanoic acid] | > 67 µM |
| CC(C)(C)CC(NC(=O)c1cc(Cl)cc(Cl)c1)c1nn[nH]n1 (centres unmarked) [Example 62, 3,5-dichloro-N-[3,3-dimethyl-1-(2H-1,2,3,4-tetrazol-5-yl)butyl]benzamide] | 6.9 µM |
| CC(C)C[C@H](NC(c1cc(Cl)cc(Cl)c1)C(F)(F)F)C(=O)O (stereo partly drawn) [Example 63, (2S)-2-{[1-(3,5-dichlorophenyl)-2,2,2-trifluoroethyl]amino}-4-methylpentanoic acid] | 10.8 µM |
| CC(C)(C)C[C@H](NC(=O)c1ccc(Oc2ccccc2)nc1)C(=O)O [Example 64, (2S)-4,4-dimethyl-2-[(6-phenoxypyridin-3-yl)formamido]pentanoic acid] | 0.065 µM |

tested on: not listed separately; test: Poloxamer gelling tests at 20° C. and 37° C.; assay type: physicochemical; details: 14% poloxamer gel, compound at 1 mg/mL
Excerpt: In a preferred embodiment, the sortilin antagonists herein described may be administered in a gel formulation, preferably a Poloxamer 407 gel formulation. Said formulation may comprise the following excipients, reactants and solvents; Poloxamer 407, 5% glucose, Sodium dihydrogenophosphate, Di-sodium hydrogenophosphate, acetonitrile, trifluoroacetic acid and de-ionized water. Preferably, the gel formulation is a 14% poloxamer solution in diluted pH 7.4 phosphate buffer (0.013M) in deionized water. […] (body temperature), see Table 1 below. […] Accordingly, the aforementioned gel formulation is an appropriate vehicle solution to administer said compounds.

| SMILES | properties of the poloxamer gel formulation after addition of compound |
| --- | --- |
| Cc1cccc(NC(=O)c2ccc(C(F)(F)F)cc2C(=O)O)n1 [Example 8, 2-[(6-methylpyridin-2-yl)carbamoyl]-5-(trifluoromethyl)benzoic acid] | unaltered |

target: T1, hSortilin; test: not given; details: expected value, compared with the [125I]-Neurotensin SPA result; cited from earlier work

| SMILES | IC50 |
| --- | --- |
| CC(C)(C)CC[C@H](NC(=O)c1ccc(Oc2ccccc2)nc1)C(=O)O (racemic) [*Example 44] | 0.02 µM |
